Results reported in patent EP0478292A1, “Heterocyclic compounds” (THE WELLCOME FOUNDATION LIMITED, priority 1990, dated 1992).
Like-named read-outs stand apart in the source and are kept apart here.

Target: T1, Purine nucleoside phosphorylase (PNPase) (Homo sapiens, UniProt P00491)
T1 construct: Purine nucleoside phosphorylase (PNPase) was purified from human erythrocytes; from tissue; host or cells: human erythrocytes
T1 sequence (P00491 1-289): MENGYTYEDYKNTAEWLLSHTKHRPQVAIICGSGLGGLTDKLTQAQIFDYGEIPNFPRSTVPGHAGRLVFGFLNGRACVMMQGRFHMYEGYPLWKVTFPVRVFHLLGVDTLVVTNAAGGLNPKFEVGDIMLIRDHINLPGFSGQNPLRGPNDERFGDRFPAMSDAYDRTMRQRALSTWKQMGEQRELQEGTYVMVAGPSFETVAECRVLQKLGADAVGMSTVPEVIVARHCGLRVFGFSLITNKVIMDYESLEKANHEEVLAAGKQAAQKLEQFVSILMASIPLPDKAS
Test: Inhibition of purine nucleoside phosphorylase, spectrophotometric assay of inosine phosphorolysis coupled with xanthine oxidase
Type: biochemical
Procedure: Enzymology-Purine nucleoside phosphorylase (PNPase) was purified from human erythrocytes by the procedure of Agarwal et al (1). PNPase and xanthine oxidase were desalted before use (2). […] PNPase was assayed spectrophotometrically as previously described (2). In addition to PNPase, the reaction mixtures contained 0.1 mM inosine, 1 mM potassium phosphate, 100 mM Tris=HCl buffer (pH 7.5), 2µM ZnCl₂, and 0.2 U/ml of xanthine oxidase. […] The percent inhibition (%I) of PNP by a single concentration of inhibitor was measured (3).

[1] = apparent inhibition constant calculated from percent inhibition at a single inhibitor concentration assuming competitive inhibition, PNPase from human erythrocytes, 0.1 mM inosine, 1 mM potassium phosphate, pH 7.5, 2µM ZnCl₂, read-out: Ki

Row | Ki [1] [nM] | Structure (SMILES) | Ki [nM]
1 | 77 | Nc1nc(O)c2ncn(CCCCP(=O)(O)CP(=O)(O)O)c2n1 [Compound 2, (((4-(2-amino-1,6-dihydro-6-oxo-9H-purin-9-yl)butyl)phosphinico)methyl)phosphonic acid] | 
2 | 8.3 | Nc1nc(O)c2ncn(CCCCCCCP(=O)(O)CP(=O)(O)O)c2n1 [Compound 4, (((7-(2-amino-1,6-dihydro-6-oxo-9H-purin-9-yl)heptyl)phosphinico)methyl)phosphonic acid] | 
3 |  | CCOP(=O)(O)CP(=O)(O)CCCCCn1cnc2c(O)nc(N)nc21 [Compound 5, ethyl hydrogen (((5-(2-amino-1,6-dihydro-6-oxo-9H-purin-9-yl)pentyl)phosphinico)methyl)phosphonate] | 870
4 | 4.5 | Nc1nc2c(ncn2CCCOCP(=O)(O)CP(=O)(O)O)c(=O)[nH]1 [Compound 6, ((((3-(2-amino-1,6-dihydro-6-oxo-9H-purine-9-yl)propoxy)methyl)phosphinico)methyl)phosphonic acid] | 
